Source: patent US20050009886A1, “1,4-Dihydropyridine derivative with a guaiacoxypropanolamine and/or phenoxypropanolamine moiety” (priority 1998, published 2005)

What was measured:
β-adrenoreceptor (β1) [1] = molecular target: T1, β-adrenoreceptor (β1) (Rattus norvegicus, UniProt P18090); assay: Isolated right atrium, L-isoproterenol-induced heart rate increase (pA2); design: species or system Wistar rat; conditions: for β1/β2: from pA2 difference right atrium vs tracheal; for β1 Right Atrium (Slope): slope of Schild regression; for β1 Value of pA2 Right Atrium: vs L-isoproterenol, Schild plot
T1 construct: The right and left atria were then separated; from tissue; host or cells: isolated rat right atrium (spontaneously beating) and left atrium (electrically paced)
T1 sequence (P18090 whole entry): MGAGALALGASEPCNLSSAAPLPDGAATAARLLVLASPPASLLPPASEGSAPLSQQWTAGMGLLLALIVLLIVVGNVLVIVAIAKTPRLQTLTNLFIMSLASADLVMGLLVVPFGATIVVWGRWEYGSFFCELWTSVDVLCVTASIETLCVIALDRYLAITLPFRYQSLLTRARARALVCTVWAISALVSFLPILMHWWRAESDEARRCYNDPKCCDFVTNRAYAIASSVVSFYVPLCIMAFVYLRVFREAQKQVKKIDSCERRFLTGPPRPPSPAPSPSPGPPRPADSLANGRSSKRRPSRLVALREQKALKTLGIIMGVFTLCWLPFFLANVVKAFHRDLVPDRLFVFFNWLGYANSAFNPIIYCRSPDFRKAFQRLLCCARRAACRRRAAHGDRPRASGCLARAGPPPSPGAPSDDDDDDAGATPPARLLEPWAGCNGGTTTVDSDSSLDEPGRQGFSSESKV
Experimental: The right and left atria were then separated. The spontaneously-beating right atria was clipped on both end by heart shaped clips, where one end was fixed at the bottom of 10 ml of tissue bath made of physiological saline solution, and temperature maintained at 37° C. The other end of the atria was connected to a force transducer, and isometric contractions and beating rate of the right atria were recorded by COULBOURN AT-High-Speed VideoFigure. After the samples were given 250 mg of contractions and reach equilibrium the following experiments were carried out: • (a) β-adrenoceptor blocking action
Cumulative administration interval was when the previous concentration reached its greatest effect, the next concentration would be immediately given.
The equation is as follows: pA2=−Log KB Log(DRADJ−1)=nlog[B]−LogKB [formula]
[B] Test compound concentration in moles • KB: equilibrium dissociation constant • n: value of slope DR: test EC50 divided by control EC50 • CF: EC50 of second or third control groups divided by EC50 of first control group (c) Effect of Compound on the Increase of Spontaneous Beating in Right Atrium Caused by CaCl2

[2] = Heart rate and blood pressure in living rat; format: in vivo, Wistar rats; conditions: 1 mg/kg via femoral vein, anaesthetized rat
From the text: Male Wistar rats, weighing 200˜300 g were abdominal anaesthetized with pentobarbital sodium. Tracheal was cannulated to maintain normal respiration. Polyethylene tube was inserted into the left femoral vein to facilitate drug administration. A 3-way stopcock was used, with one end connected to a syringe for drug injection, while the other end was connected to the syringe filled with physiological saline. The latter was used to prevent residual drugs in the polyethylene tube after injection, which would affect experimental accuracy.
The right femoral artery was also inserted with polyethylene, and a 3-way stopcock was used too, where one end was connected to heparin solution to prevent embolism. The other end was connected to a Disposable Diaphragm Dome, TA1019, and linked to a transducer. Through an amplifier, a recorder recorded the overall and average arterial pressure; heart rate to evaluate the effect of drug on blood pressure and heart rate.

thoracic aorta = assay: Isolated thoracic aorta contraction caused by 75 mM KCl; design: species or system Wistar rat; conditions: 10^−8M; 75 mM KCl contraction
Experimental: After sacrificing Wistar rat of weight between 300-500 gm, the thoracic aorta was immediately removed and placed in cold Kreb's solution. The fatty connecting tissue surrounding the vessel wall was removed and the thoracic aorta was cut into rings of length 5 mm. The two ends of each ring was pieced and fixed with “Z” shaped platinum wires. […] The sample was given 1 gm of tension and equilibrated for 60 minutes before the following experiments were carried out:
After thoracic aorta had reached equilibrium in the tissue trough, the normal Kreb's solution in the trough was replaced with 75 mM KCl solution to induce vasoconstriction. When the results had been recorded for at least 35 minutes, the aorta was repeatedly rinsed with normal Kreb's solution. After the aorta had re-equilibrated and at least rested for 60 minutes, different concentrations (10^−8, 10^−7, 10^−6, and 10^−5M) of compound 1 were separately added. 30 minutes later, 75 mM KCl was added again to induce vasoconstriction. This method was used to compare the differences in contraction induced by 75 mM KCl on thoracic aorta pre-treated and non-treated with compound 1.
0.1 μM of BayK8644 was first added into the tissue trough. 10 minutes later, 75 mM of concentrated Potassium solution was added to induce thoracic aorta contraction. When vasoconstriction had reached stability, different concentrations of (10^−8, 10^−7, 10^−6, and 10^−5M) compound 1 were separately added. The effects of aorta contraction induced by concentrated Potassium solution were observed.

Calcium = Calcium antagonism (pKCa^−1, Table 2)
β2 = molecular target: T2, β2 (Cavia porcellus, UniProt Q8K4Z4); assay: Guinea pig's isolated tracheal, L-isoproterenol relaxation of carbachol contraction (pA2); conditions: for β2 Tracheal (slope): slope of Schild regression; for β2 Value of pA2 Tracheal: vs L-isoproterenol, carbachol 10^−6 M contraction
T2 construct: a portion of tracheal approximately 4 cm long was removed; from tissue; host or cells: isolated trachea of reserpine-pretreated guinea pigs
T2 sequence (Q8K4Z4 whole entry): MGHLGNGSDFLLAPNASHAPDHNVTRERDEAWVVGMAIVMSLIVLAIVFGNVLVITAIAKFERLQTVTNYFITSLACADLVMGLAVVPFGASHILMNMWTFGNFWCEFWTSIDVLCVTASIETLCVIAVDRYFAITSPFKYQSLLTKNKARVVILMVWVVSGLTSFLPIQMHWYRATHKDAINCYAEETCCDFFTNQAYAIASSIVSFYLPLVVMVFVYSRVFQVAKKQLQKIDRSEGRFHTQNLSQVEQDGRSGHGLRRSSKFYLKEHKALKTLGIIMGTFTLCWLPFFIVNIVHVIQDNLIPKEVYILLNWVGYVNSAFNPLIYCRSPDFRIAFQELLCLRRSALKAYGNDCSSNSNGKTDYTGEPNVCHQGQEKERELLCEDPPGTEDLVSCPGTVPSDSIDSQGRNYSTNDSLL
Experimental: Guinea pigs of weight between 300˜500 gm were used. […] After the guinea pigs were sacrificed, a slit was made along the neck, and a portion of tracheal approximately 4 cm long was removed. […] The two ends of the tracheal were clamped with frog-heart shaped clamps, one end was fixed at the bottom of tissue bath filled with 20 ml of Kreb's solution, maintained at 37° C., while the other end was connected to a force transducer. Through a COULBOURN AT-High-Speed Videograph, long isometric contractions were recorded. After the sample was given 1.5 gm of tension and equilibrated, the following experiments were performed:
Then the tracheal was repeatedly washed with Kreb's solution for 20 minutes and 10−6 M of carbochol was added to cause contraction in the guinea pig's tracheal. […] This is the test group.
(b) Calculation of pA2: similar to the calculation method for isolated right atrium experiment.

β-adrenoreceptor (β1) [3] = molecular target: T1, β-adrenoreceptor (β1); assay: Isolated left atrium, L-isoproterenol-induced contractility increase (pA2); design: species or system Wistar rat; conditions: for β1 Left Atrium (Slope): slope of Schild regression; for β1 Value of pA2 Left Atrium: vs L-isoproterenol, electrically stimulated
Experimental: The inspontaneously-beating left atrial tissue was obtained from rat's isolated right atrial tissue experiments. […] The contraction rate was 1 Hz and the resting tension 0.5 gm. After 60 minutes of equilibration, the following experiments were performed:
(a) Completion of cumulative concentration-response curve: similar to experimental method on isolated right atrium;
(b) Calculation of pA2 value: similar to calculation method on isolated right atrium.

isolated atria = assay: Direct effect (intrinsic sympathomimetic activity) on reserpine pretreated isolated atria; design: species or system Wistar rat; conditions: for direct effect on right atrium beating rate and left atrium isometric contractions: cumulative administration, reserpine pretreated
Experimental: Wistar rats of weight between 200˜300 gm were used. 18˜24 hours before the experiment, 5 mg/kg of reserpine was injected via abdominal cavity to remove all endogenous catecholamines. Prior experiment, Wistar rats were sacrificed, the heart was immediately removed and placed in Kreb's solution aerated with air mixture and maintained at room temperature. The right and left atria were carefully separated.

Row | Structure (SMILES) | Ratio of β1 and Calcium Antagonism (β-adrenoreceptor (β1) [1]) | β1/β2 (β-adrenoreceptor (β1) [1]) | β1 Right Atrium (Slope) (β-adrenoreceptor (β1) [1]) | β1 Value of pA2 Right Atrium (β-adrenoreceptor (β1) [1]) | Lowering of Blood Pressure [2] | Reduction of Heart Rate [2] | Aorta Relaxation (thoracic aorta) | Calcium Antagonism PKCa^−1 (Calcium) | β2 Tracheal (slope) (β2) | β2 Value of pA2 Tracheal (β2) | β1 Left Atrium (Slope) (β-adrenoreceptor (β1) [3]) | β1 Value of pA2 Left Atrium (β-adrenoreceptor (β1) [3]) | direct effect on right atrium beating rate and left atrium isometric contractions (isolated atria) | atrial blocking effect (isolated atria; 3×10−4M)
1 | COC(=O)C1=C(C)NC(C)=C(C(=O)OC)C1c1ccc(OCC(O)CNCCOc2ccccc2OC)c(OC)c1 (stereo not drawn) [Compound 2, 4-{{N-{4-[2-hydroxy-3-(2-methoxy-1-oxyethyl-aminobenzene)propoxy]-3-methoxy}phenyl}}-2,6-dimethyl-3,5-dicarbo-methoxy-1,4-dihydropyridine] | 0.09 | 1.28 | (0.88 ± 0.09) | 7.36 ± 0.65 | 75 ± 2 mmHg | 35 ± 4 beats/min | 40 ± 4% | 7.91 ± 0.35 | (0.88 ± 0.12) | 7.20 ± 0.45 | (0.91 ± 0.21) | 6.93 ± 0.34 | – | –
2 | CCOC(=O)C1=C(C)NC(C)=C(C(=O)OCC)C1c1ccc(OCC(O)CNCCOc2ccccc2OC)c(OC)c1 (stereo not drawn) [Compound 3, 4-{{N-{4-[2-hydroxy-3-(2-methoxy-1-oxyethyl-aminobenzene)propoxy]-3-methoxy)phenyl}}-2,6-dimethyl-3,5-dicarboethoxy-1,4-dihydropyridine] | 0.08 | 1.26 | (0.92 ± 0.27) | 7.47 ± 0.38 | 78 ± 5 mmHg | 37 ± 5 beats/min | 41 ± 2% | 7.96 ± 0.27 | (0.92 ± 0.23) | 7.31 ± 0.23 | (0.89 ± 0.03) | 6.97 ± 0.12 | – | –
3 | CCOC(=O)C1=C(C)NC(C)=C(C(=O)OCC)C1c1cc(Cl)ccc1OCC(O)CNC(C)(C)C (stereo not drawn) [Compound 4] | 0.08 | 1.31 | (0.83 ± 0.12) | 7.38 ± 0.12 | 76 ± 6 mmHg | 33 ± 3 beats/min | 35 ± 5% | 7.94 ± 0.56 | (0.87 ± 0.18) | 7.27 ± 0.32 | (0.92 ± 0.12) | 6.90 ± 0.35 | – | –
4 | CCCCNCC(O)COc1ccc(Cl)cc1C1C(C(=O)OCC)=C(C)NC(C)=C1C(=O)OCC (stereo not drawn) [Compound 5] | 0.10 | 1.33 | (0.91 ± 0.23) | 7.37 ± 0.27 | 74 ± 4 mmHg | 32 ± 4 beats/min | 33 ± 2% | 7.89 ± 0.34 | (0.91 ± 0.21) | 7.24 ± 0.12 | (0.93 ± 0.19) | 6.91 ± 0.09 | – | –
5 | CCOC(=O)C1=C(C)NC(C)=C(C(=O)OCC)C1c1cc(Cl)ccc1OCC(O)CNCCOc1ccccc1OC (stereo not drawn) [Compound 6] | 0.11 | 1.29 | (0.88 ± 0.12) | 7.41 ± 0.34 | 80 ± 3 mmHg | 35 ± 5 beats/min | 45 ± 4% | 8.01 ± 0.45 | (0.90 ± 0.19) | 7.31 ± 0.19 | (0.91 ± 0.09) | 7.01 ± 0.28 | – | –
6 | CCOC(=O)C1=C(C)NC(C)=C(C(=O)OCC)C1c1ccc(OCC(O)CNCCOc2ccccc2OC)c(Cl)c1 (stereo not drawn) [Compound 7, 4-{{N-{4-[2-hydroxy-3-(2-methoxy-1-oxyethyl-aminobenzene)propoxy]-3-choloro}phenyl} }-2,6-dimethyl-3,5-dicarbo-ethoxy-1,4-dihydropyridine] | 0.07 | 1.34 | (0.91 ± 0.08) | 7.77 ± 0.34 | 82 ± 6 mmHg | 40 ± 2 beats/min | 45 ± 5% | 8.06 ± 0.27 | (0.89 ± 0.21) | 7.28 ± 0.21 | (0.88 ± 0.27) | 6.97 ± 0.29 | – | –
7 | CCOC(=O)C1=C(C)NC(C)=C(C(=O)OCC)C1c1cc([N+](=O)[O-])ccc1OCC(O)CNC(C)(C)C (stereo not drawn) [Compound 8] | 0.08 | 1.29 | (0.83 ± 0.21) | 7.89 ± 0.23 | 80 ± 3 mmHg | 40 ± 4 beats/min | 43 ± 3% | 8.09 ± 0.13 | (0.92 ± 0.17) | 7.27 ± 0.19 | (0.89 ± 0.12) | 7.03 ± 0.18 | – | –
8 | CCOC(=O)C1=C(C)NC(C)=C(C(=O)OCC)C1c1cc([N+](=O)[O-])ccc1OCC(O)CNCCOc1ccccc1OC (stereo not drawn) [Compound 9] | 0.07 | 1.30 | (0.88 ± 0.09) | 7.78 ± 0.12 | 85 ± 6 mmHg | 40 ± 5 beats/min | 47 ± 2% | 8.12 ± 0.32 | (0.88 ± 0.23) | 7.33 ± 0.24 | (0.91 ± 0.18) | 7.12 ± 0.09 | – | –
9 | CC(C)NC[C@H](O)c1ccc(O)c(O)c1 [L-isoproterenol] | – | – | – | – | – | – | – | – | – | – | – | – | dose-dependently increase the right atrium beating rate and left atrium isometric contractions | –
10 | CC(C)NCC(O)COc1cccc2ccccc12 (stereo not drawn) [Propranolol] | – | – | – | – | – | – | – | – | – | – | – | – | could retard the beating rate and isometric contractions | –
11 | CC(C)NCC(O)COc1ccc(CC(N)=O)cc1 (stereo not drawn) [atenolol] | – | – | – | – | – | – | – | – | – | – | – | – | – | almost does not have atrial blocking effect
